# Test results taken from patent US6222043A, “Methods of preparing novel dipeptide compounds or pharmaceutically acceptable salts thereof” (Japan Energy Corporation, priority 1995, dated 2001).
# Assay: Pharmacokinetics in rats, intravenous or intraduodenal administration
# Type: in vivo
# Settings: rat
# Experimental: Metabolic characteristics of the dipeptide compounds of the present invention was evaluated using rats. Tested compounds dissolved in vehicle was administered intraduodenally or intravenously. After administration, blood was taken and the concentration of residual tested compound in plasma was analyzed. The dosage of the tested compound was described in table 3.
"AUC (i.d., 20.0 mg/kg)","F (bioavailability on intraduodenal administration) (i.d., 20.0 mg/kg)","AUC (i.v., 10.0 mg/kg)","MRT (i.v., 10.0 mg/kg)","t1/2 (λ) (i.v., 10.0 mg/kg)","AUC (i.d., 10.0 mg/kg)","F (bioavailability on intraduodenal administration) (i.d., 10.0 mg/kg)",SMILES
,,124 µg/mL/min,31.9 min,40.51 min,40 µg/mL/min,32.26%,"Cc1ccccc1CNC(=O)[C@@H]1CSCN1C(=O)[C@@H](O)[C@H](Cc1ccccc1)NC(=O)c1cccc(O)c1C [Compound of example 34, (R)-N-(2-methylbenzyl)-3-[(2S,3S)-3-(3-hydroxy-2-methylbenzoyl)amino-2-hydroxy-4-phenylbutanoyl]-1,3-thiazolidine-4-carboxamide]"
,,174 µg/mL/min,88.9 min,83.90 min,64 µg/mL/min,37.01%,"CCc1c(O)cccc1C(=O)N[C@@H](Cc1ccccc1)[C@H](O)C(=O)N1CSC(C)(C)[C@H]1C(=O)NC(C)(C)C [Compound of example 36, (R)-N-tert-butyl-3-[(2S,3S)-3-(2-ethyl-3-hydroxybenzoyl)amino-2-hydroxy-4-phenylbutanoyl]-5,5-dimethyl-1,3-thiazolidine-4-carboxamide]"
,,131 µg/mL/min,74.7 min,92.63 min,55 µg/mL/min,41.55%,"Cc1ccccc1CNC(=O)[C@H]1N(C(=O)[C@@H](O)[C@H](Cc2ccccc2)NC(=O)c2cccc(O)c2C)CSC1(C)C [Compound of example 37, (R)-N-(2-methylbenzyl)-3-[(2S,3S)-3-(3-hydroxy-2-methylbenzoyl)amino-2-hydroxy-4-phenylbutanoyl]-5,5-dimethyl-1,3-thiazolidine-4-carboxamide]"

# The next lines start with the compound.
SMILES,"AUC (i.d., 20.0 mg/kg)","F (bioavailability on intraduodenal administration) (i.d., 20.0 mg/kg)","AUC (i.v., 10.0 mg/kg)","MRT (i.v., 10.0 mg/kg)","t1/2 (λ) (i.v., 10.0 mg/kg)","AUC (i.d., 10.0 mg/kg)","F (bioavailability on intraduodenal administration) (i.d., 10.0 mg/kg)"
"Cc1c(O)cccc1C(=O)N[C@@H](Cc1ccccc1)[C@H](O)C(=O)N1CSC[C@H]1C(=O)NC(C)(C)C [Compound of example 21, (R)-N-tert-butyl-3-[(2S,3S)-2-hydroxy-3-[3-hydroxy-2-methylbenzoyl]amino-4-phenylbutanoyl]-1,3-thiazolidine-4-carboxamide]",101 µg/mL/min,45.41%,111 µg/mL/min,31.7 min,35.98 min,,
"Cc1c(O)cccc1C(=O)N[C@@H](Cc1ccccc1)[C@H](O)C(=O)N1CSC(C)(C)[C@H]1C(=O)NC(C)(C)C [Compound of example 22, (R)-N-tert-butyl-3-[(2S,3S)-2-hydroxy-3-[3-hydroxy-2-methylbenzoyl]amino-4-phenylbutanoyl]-5,5-dimethyl-1,3-thiazolidine-4-carboxamide]",106 µg/mL/min,47.53%,111 µg/mL/min,22.9 min,23.89 min,,
"CCc1c(O)cccc1C(=O)N[C@@H](Cc1ccccc1)[C@H](O)C(=O)N1CSC[C@H]1C(=O)NC(C)(C)C [Compound of example 31, (R)-N-tert-butyl-3-[(2S,3S)-2-hydroxy-3-(2-ethyl-3-hydroxybenzoyl)amino-4-phenylbutanoyl]-1,3-thiazolidine-4-carboxamide]",,,276 µg/mL/min,96.0 min,73.81 min,99 µg/mL/min,36.24%
"CSC[C@H](NC(=O)COc1cccc2cnccc12)C(=O)N[C@@H](Cc1ccccc1)[C@H](O)C(=O)N1CSC[C@H]1C(=O)NC(C)(C)C [KNI-272, (R)-3-[(2S,3S)-3-(N-(isoquinoline-5-yloxy)acetylmethylthio-L-alanyl)amino-2-hydroxy-4-phenylbutanoyl]1,3-thiazolidine-4-N'-t-butylcarboxamide, reference compound]",,,224 µg/mL/min,23.2 min,25.57 min,98 µg/mL/min,43.20%
